From patent publication US5294605A, “Amphiphilic peptide compositions and analogues thereof” (The Scripps Research Institute, priority 1991, dated 1994) come the findings set out here.

Format in all cases: cell-based
In assay [1] the test system is E. coli ATCC 25922. Description: Antibacterial assay, NCCLS M7-T2 microdilution (Example 15), MIC. The following applies: Table XI; Mueller Hinton broth, 16-20 hours 37° C., 1-5×10^5 CFUs/ml. How it is done:
(§1) The procedure for the following antibacterial assay is based upon the guidelines of the National Committee for Clinical Laboratory Standards, Document M7-T2, Volume 8, No. 8, 1988.
(§2) Stock solutions of the following Peptides (SEQ ID NO:4) and (SEQ ID NO:64) through (SEQ ID NO:68) in accordance with the present invention are prepared at a concentration of 512 μg/ml in sterile deionized distilled water and stored at -70° C.
(§3) The stock peptide solution was diluted in serial dilutions (1:2) down the wells of a microtiter plate so that the final concentrations of peptides in the wells were 0.25, 0.50, 1, 2, 4, 8, 16, 32, 64, 128, and 256 μg/ml. 1-5×10^5 CFUs/ml of either S. aureus ATCC 25923, E. coli ATCC 25922, or P. aeruginosa ATCC 27853 were added to the wells in full strength Mueller Hinton broth (BBL 11443) from a mid-log culture. The inoculum is standarized spectrophotometrically at 600 nm and is verified by colony counts. […] Minimal inhibitory concentration is defined as the lowest concentration of peptide which produces a clear well in the microtiter plate.
(§4) For purposes of explanation of Table XI below, S is the MIC of the peptide against S. aureus, P is the MIC of the peptide against P. aeruginosa, and E is the MIC of the peptide against E. coli.

Assay [2] deals with P. aeruginosa ATCC 27853. The assay is described as above. The following applies: Table XI; Mueller Hinton broth, 16-20 hours 37° C., 1-5×10^5 CFUs/ml. How it is done: as §1, §2, §3, §4
The subject of assay [3] is S. aureus ATCC 25923. The assay is described as above. The following applies: Table XI; Mueller Hinton broth, 16-20 hours 37° C., 1-5×10^5 CFUs/ml. How it is done:
as §1, §2, §3, §4

Assay [4] has as its system Escherichia coli. The following applies: 20 hours, LB medium. How it is done:
(§5) For the following Examples 3-9, antimicrobial assays were carried out in 96-well tissue culture plates. Each well was incubated with a given microorganism (Escherichia coli, Staphylococcus epidermidis, or Pseudomonas aeruginosa) suspended in LB medium. Upon the addition of the parent peptide having the structural formula hereinabove described, or its substitution analogues, or of Peptide I (dissolved in 1 X PBS, pH 7.0) each well contained a final cell density of 1.0×10^6 colony forming units (CFU)/ml. The final peptide concentrations ranged from 1.5 μg/ml to greater than 100 μg/ml.
(§6) Addition of peptides to the wells was defined as time zero. At twenty hours, the plates were placed in a Titertek Multiskan apparatus and the O.D.620 determined. The plates as well as the initial innoculum were incubated at 37° C.
(§7) Five wells per plate contained media alone, while five others contained medium plus cells. These controls were used to eliminate the possibility of media contamination while providing a measure of uninhibited growth of the microorganisms.
(§8) The degree of peptide activity was determined by comparing the substitution analogues with uninhibited growth of the control cells over a twenty-hour period.
(§9) as hereinabove described and analogues thereof wherein a methionine sulfoxide residue was substituted for various amino acid residues of the parent peptide were prepared as hereinabove described in Example 1 and tested for minimum inhibitory concentration with respect to E. coli, P. aeruginosa, and S. epidermidis at a concentration given in μg/ml, and for percent hemolysis of human red blood cells as hereinabove described in Example 2. The minimum inhibitory concentration and percent hemolysis (at a concentration of 100 μg/ml) are listed below in Table I. As used herein, the heading "Amino Acid Residue Substituted" refers to the number of the amino acid residue in the peptide which is substituted with a desired amino acid residue. All other residues remain the same as that of the normal peptide sequence. The term "Minimum Inhibitory Concentration" (MIC) as used herein indicates the minimum concentration of peptide in μg/ml needed to achieve 100 percent effective growth inhibition of the organism.

For assay [5], the system named is Pseudomonas aeruginosa. The following applies: 20 hours, LB medium. How it is done: as §5, §6, §7, §8, §9
Assay [6] relates to Staphylococcus epidermidis. The assay can be described thus: Antimicrobial assay in 96-well plates, LB medium (Example 2), MIC. The following applies: 20 hours.
Assay [7] concerns Escherichia coli. The assay can be described thus: Antimicrobial assay for deletion analogues (Example 10), MIC. The following applies: Table VII; 1.3×10^5 CFU/ml, 20 hours, LB medium. How it is done: (§10) For the deletion analogues of the parent peptide further described in Examples 11 and 12, antimicrobial assays were carried out in 96-well tissue culture plates. Each well was incubated with a given microorganism (Escherichia coli, Staphylococcus epidermidis, Pseudomonas aeruginosa, or Staphylococcus aureus) suspended in LB medium. Upon addition of the parent peptide or its deletion analogues (dissolved in 1×PBS<pH7.0), each well contained a final cell density of 1.3×10^5 colony forming units (CFU)/ml of E. coli, or 3.5×10^5 CFU/ml P.aeruginosa, or 3.9×10^5 CFU/ml S. Aureus or 3.0×10^5 CFU/ml S. epidermidis. The final peptide concentrations ranged from 1.5 μg/ml to greater than 100 μg/ml. Addition of peptide to the wells was defined as time zero. At twenty hours, the plates were placed in a Titertek Multiskan apparatus and the O.D. 620 determined. The plates as well as the initial innoculum were incubated at 37° C. Five wells per plate contained medium alone, whereas five others contained medium plus cells. These controls were used to eliminate the possibility of medium contamination, while providing a measure of uninhibited growth of the microorganisms. The degree of peptide activity was determined by comparing the deletion analogues with uninhibited growth of the control cells over a twenty-hour period. The effective growth inhibitation of the deletion analogues is listed in the examples and tables below.

In assay [8] the test system is Pseudomonas aeruginosa. The description is as above. The following applies: Table VII; 3.5×10^5 CFU/ml, 20 hours, LB medium. How it is done: as §10
The subject of assay [9] is Staphylococcus aureus. Described as above. The following applies: Table VII; 3.9×10^5 CFU/ml, 20 hours, LB medium. How it is done: as §10
In assay [10] the test system is Staphylococcus epidermidis. The description is as above. The following applies: Table VII; 3.0×10^5 CFU/ml, 20 hours, LB medium. How it is done: as §10
Setting [11] is: Table I, 100 percent growth inhibition, 1.0×10^6 CFU/ml.
The mark [12] stands for this setting: Table VI, methionine sulfoxide diastereomer fractions.

Values joined by “and” are separate entries in the source; they are usually repeats but may differ in a detail not shown here. Equal entries are not always repeated. Where two headings read alike, the source gives them in different places. Square brackets hold non-standard residues; d marks the D form. Ends that are not written are not given here. Met(O) = CS(=O)CC[C@H](N)C(=O)O

For “Ac-KKLLKKLKKLLKKL-NH2 [X-(SEQ ID NO: 65) --NH2]”, the “MIC E (E. coli)” value in assay [1] was determined as 32 mg/L. Moreover, the “MIC P (P. aeruginosa)” value in assay [2] was 16 mg/L and 32 mg/L. Further, in assay [3], the “MIC S (S. aureus)” value worked out at 16 mg/L.

“Ac-LKKLLKKLKKLLKKL-NH2 [X-(SEQ ID NO: 66) --NH2]”: the “MIC E (E. coli)” value in [1] worked out at 8 mg/L. Besides, the “MIC P (P. aeruginosa)” value in assay [2] turned out to be 16 mg/L. In addition, in assay [3], the “MIC S (S. aureus)” value was 8 mg/L.

“Ac-LKLLKKLLKKLKKLLKKL-NH2 [None (parent)]”: the “Minimum Inhibitory Concentration E. coli” value in assay [4] (setting [11]) and in assay [7] was 10 µg/mL each time. For the same substance, the “Minimum Inhibitory Concentration P. Aeruginosa” value in [5] (setting [11]) and in assay [8] was 75 µg/mL throughout. The “Minimum Inhibitory Concentration S. epidermidis” value in assay [6] (setting [11]) and in [10] was 2.5 µg/mL each time. In addition, the “Minimum Inhibitory Concentration S. aureus” value in assay [9] was 128 µg/mL.

On to “Ac-LLKKLKKLLKKLLKLL-NH2 [X-(SEQ ID NO: 4) --NH2]”, for which the “MIC E (E. coli)” value in assay [1] was 32 mg/L. For the same substance, the “MIC P (P. aeruginosa)” value in assay [2] turned out to be 64 mg/L. Also, in [3], the “MIC S (S. aureus)” value stood at 32 mg/L.

Regarding “Ac-LKLLKKLLKKGKKLLKKL-NH2 [X-(SEQ ID NO: 68) --NH2]”, in assay [1], the “MIC E (E. coli)” value was 16 mg/L. The “MIC P (P. aeruginosa)” value in [2] was 8 mg/L. Moreover, in [3], the “MIC S (S. aureus)” value is 8 mg/L.

With “LLKKLKKLLKKLLKLL-NH2 [(SEQ ID NO: 4) --NH2]”, the “MIC E (E. coli)” value in [1] came to 32 mg/L. The “MIC P (P. aeruginosa)” value in assay [2] turned out to be 64 mg/L. Also, in assay [3], the “MIC S (S. aureus)” value is 32 mg/L.

Turning to “7 (SEQ ID NO: 11) 70/30: residue 7 methionine sulfoxide analogue, fraction by proportion of L-methionine-L-/D-sulfoxide (assignment undetermined) (LKLLKK[Met(O)]LKKLKKLLKKL; also: sulfoxide L-/D- 70/30 mixture, assignment undetermined)”, the “Min. Inhibitory Concentration E. Coli” value in [4] (setting [12]) was determined as 10 µg/mL. The “Min. Inhibitory Concentration P. Aeruginosa” value in assay [5] (setting [12]) was more than 5 µg/mL. Further, the “Min. Inhibitory Concentration S. epidemidia” value in assay [6] (setting [12]) was more than 10 µg/mL.
